According to ChEMBL document CHEMBL1147945, “R-isomers of Arg-Gly-Asp (RGD) mimics as potent alphavbeta3 inhibitors” (Bioorg Med Chem, 2007):

Key:
[1] = target: T1, Integrin alpha-V/beta-6 (Homo sapiens, UniProt P06756+P18564); experiment: Inhibition of alpha-V-beta-6 integrin receptor in human HT29 cells; format: cell-based, HT-29
[2] = target: Integrin alpha-V/beta-3 (Homo sapiens, UniProt P05106+P06756); experiment: Inhibition of alphaVbeta3 integrin receptor expressed in human 293 cells; format: cell-based, HEK293
[3] = target: T1, Integrin alpha-V/beta-6; experiment: Inhibition of alpha-V-beta-6 integrin receptor in human 293 cells; format: cell-based, HEK293
[4] = Bioavailability in mouse at 20 mg/kg, po; format: ADME, organism-based; conditions: in vivo
[5] = Half life in mouse at 20 mg/kg po or 10 mg/kg iv; format: ADME, organism-based; conditions: in vivo

T1 sequence (P06756 31-889 limits assumed): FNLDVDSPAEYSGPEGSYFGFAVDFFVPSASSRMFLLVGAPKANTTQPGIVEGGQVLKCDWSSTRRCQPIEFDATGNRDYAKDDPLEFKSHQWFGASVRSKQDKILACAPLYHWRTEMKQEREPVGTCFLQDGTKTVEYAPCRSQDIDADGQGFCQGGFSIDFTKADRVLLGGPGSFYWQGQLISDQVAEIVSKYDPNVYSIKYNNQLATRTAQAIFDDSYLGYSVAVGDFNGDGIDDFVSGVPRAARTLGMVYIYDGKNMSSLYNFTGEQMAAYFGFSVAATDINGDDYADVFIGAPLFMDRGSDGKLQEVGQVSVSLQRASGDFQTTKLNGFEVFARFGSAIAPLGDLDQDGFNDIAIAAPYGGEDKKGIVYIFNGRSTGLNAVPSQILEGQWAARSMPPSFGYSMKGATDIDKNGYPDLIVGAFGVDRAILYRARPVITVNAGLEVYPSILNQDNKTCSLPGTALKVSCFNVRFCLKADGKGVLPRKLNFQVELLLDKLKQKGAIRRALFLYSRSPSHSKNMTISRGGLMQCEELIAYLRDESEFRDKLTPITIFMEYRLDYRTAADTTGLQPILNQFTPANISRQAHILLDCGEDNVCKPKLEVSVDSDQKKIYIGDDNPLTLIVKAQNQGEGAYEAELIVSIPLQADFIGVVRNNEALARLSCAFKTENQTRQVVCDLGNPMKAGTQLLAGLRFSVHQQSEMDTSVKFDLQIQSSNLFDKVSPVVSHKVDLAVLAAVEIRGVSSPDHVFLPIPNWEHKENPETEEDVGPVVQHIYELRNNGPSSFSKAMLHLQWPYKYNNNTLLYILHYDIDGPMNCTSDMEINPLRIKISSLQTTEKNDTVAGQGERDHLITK
T1 sequence (P06756 891-1048 limits assumed): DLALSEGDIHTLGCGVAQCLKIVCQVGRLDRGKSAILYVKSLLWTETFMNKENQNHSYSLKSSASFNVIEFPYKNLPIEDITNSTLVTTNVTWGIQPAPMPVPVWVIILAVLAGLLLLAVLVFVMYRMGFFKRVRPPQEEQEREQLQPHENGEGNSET
T1 sequence (P18564 22-788 limits assumed): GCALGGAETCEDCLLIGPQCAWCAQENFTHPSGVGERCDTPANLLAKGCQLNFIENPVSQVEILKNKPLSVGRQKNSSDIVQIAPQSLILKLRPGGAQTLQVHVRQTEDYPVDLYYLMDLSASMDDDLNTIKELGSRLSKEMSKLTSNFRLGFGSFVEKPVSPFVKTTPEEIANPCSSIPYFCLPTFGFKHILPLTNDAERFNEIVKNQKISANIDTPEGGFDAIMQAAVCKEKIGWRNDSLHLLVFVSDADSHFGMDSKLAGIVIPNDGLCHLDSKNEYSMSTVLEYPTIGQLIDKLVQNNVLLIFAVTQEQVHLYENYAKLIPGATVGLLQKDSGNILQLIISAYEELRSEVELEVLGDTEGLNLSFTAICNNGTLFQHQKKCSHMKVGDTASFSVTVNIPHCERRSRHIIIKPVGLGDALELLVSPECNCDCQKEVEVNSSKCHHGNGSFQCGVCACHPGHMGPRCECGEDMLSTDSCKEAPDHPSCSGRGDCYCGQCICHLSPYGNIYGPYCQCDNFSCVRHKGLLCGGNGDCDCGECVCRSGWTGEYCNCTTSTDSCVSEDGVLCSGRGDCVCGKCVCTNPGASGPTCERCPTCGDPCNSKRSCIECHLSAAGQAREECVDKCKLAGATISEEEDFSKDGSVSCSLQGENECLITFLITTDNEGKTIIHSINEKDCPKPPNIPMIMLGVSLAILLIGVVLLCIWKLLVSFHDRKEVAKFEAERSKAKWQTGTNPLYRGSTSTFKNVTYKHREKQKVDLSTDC
Integrin alpha-V/beta-3, sequence (P05106 27-788 limits assumed): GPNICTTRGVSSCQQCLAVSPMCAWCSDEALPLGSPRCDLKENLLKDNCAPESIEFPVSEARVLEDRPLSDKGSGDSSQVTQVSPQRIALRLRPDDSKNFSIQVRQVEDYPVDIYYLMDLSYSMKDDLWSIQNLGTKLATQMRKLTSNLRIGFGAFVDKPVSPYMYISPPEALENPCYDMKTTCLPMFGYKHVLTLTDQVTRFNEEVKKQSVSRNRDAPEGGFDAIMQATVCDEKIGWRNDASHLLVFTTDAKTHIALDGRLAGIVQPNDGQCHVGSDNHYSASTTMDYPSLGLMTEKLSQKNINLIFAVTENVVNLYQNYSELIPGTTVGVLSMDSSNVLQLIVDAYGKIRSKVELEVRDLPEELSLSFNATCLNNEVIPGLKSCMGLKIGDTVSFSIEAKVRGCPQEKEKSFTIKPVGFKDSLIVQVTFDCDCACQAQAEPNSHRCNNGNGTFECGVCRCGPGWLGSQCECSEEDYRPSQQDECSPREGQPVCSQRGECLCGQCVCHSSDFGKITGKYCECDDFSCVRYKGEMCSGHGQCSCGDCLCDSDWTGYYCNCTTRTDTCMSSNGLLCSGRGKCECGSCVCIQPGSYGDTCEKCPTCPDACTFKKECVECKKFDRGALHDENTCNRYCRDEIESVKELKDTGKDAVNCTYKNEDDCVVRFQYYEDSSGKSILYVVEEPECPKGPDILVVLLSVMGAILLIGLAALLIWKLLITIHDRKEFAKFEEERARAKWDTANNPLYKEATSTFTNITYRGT
Integrin alpha-V/beta-3, sequence (P06756 31-889 limits assumed): as the sequence (P06756 31-889 limits assumed) above
Integrin alpha-V/beta-3, sequence (P06756 891-1048 limits assumed): as the sequence (P06756 891-1048 limits assumed) above

Row | IC50 [1] [nM] | IC50 [2] [nM] | IC50 [3] [nM] | bioavailability [4] [%] | half-life [5] [min] | Compound
1 | 11500 | 1 | – | – | – | O=C(O)C[C@@H](NC(=O)CNC(=O)c1cccc(NC2=NCC(O)CN2)c1)c1cc(Cl)cc(I)c1O (some centres undefined)
2 | 71 | 3 | – | – | – | O=C(O)C[C@@H](NC(=O)CNC(=O)c1cc(O)cc(NC2=NCC(F)CN2)c1)c1cc(Br)cc(Cl)c1O (some centres undefined)
3 | 3530 | 5 | – | – | – | O=C(O)C[C@@H](NC(=O)CNC(=O)c1cccc(NC2=NCC(O)CN2)c1)c1cc(Cl)cc(Br)c1O (some centres undefined)
4 | 3440 | 3 | – | – | – | Nc1cc(NC2=NCC(F)CN2)cc(C(=O)NCC(=O)N[C@H](CC(=O)O)c2cc(Cl)cc(Br)c2O)c1 (some centres undefined)
5 | 631 | 3 | – | – | – | O=C(O)C[C@@H](NC(=O)CNC(=O)c1cc(O)cc(NC2=NCC(O)CN2)c1)c1cc(Cl)cc(I)c1O (some centres undefined)
6 | 1760 | 2 | – | – | – | O=C(O)C[C@@H](NC(=O)CNC(=O)c1cncc(NC2=NCC(O)CN2)c1)c1cc(Br)cc(Br)c1O (some centres undefined)
7 | 20 | 5 | – | – | – | O=C(O)C[C@@H](NC(=O)CNC(=O)c1cc(O)cc(NC2=NCC(F)CN2)c1)c1cc(Br)cc(Br)c1 (some centres undefined)
8 | – | 0.3 | – | – | – | O=C(O)C[C@H](NC(=O)CNC(=O)c1cccc(NC2=NCC(O)CN2)c1)c1cc(Cl)cc(Cl)c1O (some centres undefined)
9 | – | 2.7 | – | – | – | O=C(O)C[C@H](NC(=O)CNC(=O)c1cc(O)cc(N=C2NCC(O)CN2)c1)c1cc(Br)cc(Cl)c1O (some centres undefined)
10 | – | 6.4 | – | – | – | O=C(O)C[C@H](NC(=O)CNC(=O)c1cc(O)cc(NC2=NCC(O)CN2)c1)c1cc(Cl)cc(I)c1O (some centres undefined)
11 | – | 0.2 | – | – | – | Cc1cc(Cl)cc([C@H](CC(=O)O)NC(=O)CNC(=O)c2cc(O)cc(NC3=NCC(O)CN3)c2)c1O (some centres undefined)
12 | 96 | 21 | – | – | – | O=C(O)C[C@@H](NC(=O)CNC(=O)c1cc(O)cc(NC2=NCC(O)CN2)c1)c1cc(Br)cc(Br)c1O (some centres undefined)
13 | 588 | 7 | – | – | – | O=C(O)C[C@@H](NC(=O)CNC(=O)c1cc(O)cc(NC2=NCC(O)CN2)c1)c1cc(Br)cc(Cl)c1O (some centres undefined)
14 | – | 9 | 1780 | – | – | O=C(O)C[C@@H](NC(=O)CNC(=O)c1cc(O)cc(NC2=NCCCN2)c1)c1cc(Cl)cc(I)c1O
15 | 49 | 56 | – | – | – | Cc1cc(C)cc([C@@H](CC(=O)O)NC(=O)CNC(=O)c2cc(O)cc(NC3=NCC(F)CN3)c2)c1 (some centres undefined)
16 | – | 0.4 | – | – | – | O=C(O)C[C@H](NC(=O)CNC(=O)c1cncc(NC2=NCC(F)CN2)c1)c1cc(Cl)cc(Br)c1O (some centres undefined)
17 | – | 3 | 52 | – | – | O=C(O)C[C@@H](NC(=O)CNC(=O)c1cc(O)cc(NC2=NCC(O)CN2)c1)c1cc(Cl)cc(Br)c1O (some centres undefined)
18 | 118 | 54 | – | – | – | Cc1cc(C)c(O)c([C@@H](CC(=O)O)NC(=O)CNC(=O)c2cc(O)cc(NC3=NCC(O)CN3)c2)c1 (some centres undefined)
19 | 3000 | 3 | – | – | – | O=C(O)C[C@@H](NC(=O)CNC(=O)c1cc(O)cc(NC2=NCCCN2)c1)c1cc(Cl)cc(Cl)c1O
20 | 12300 | 0.3 | – | – | – | Nc1cc(NC2=NCC(O)CN2)cc(C(=O)NCC(=O)N[C@H](CC(=O)O)c2cc(Cl)cc(I)c2O)c1 (some centres undefined)
21 | – | 0.6 | – | – | – | O=C(O)C[C@H](NC(=O)CNC(=O)c1cccc(NC2=NCC(O)CN2)c1)c1cc(Cl)cc(Br)c1O (some centres undefined)
22 | 16 | 1 | – | – | – | O=C(O)C[C@@H](NC(=O)CNC(=O)c1cccc(N=C2NCC(F)CN2)c1)c1cc(Cl)cc(Cl)c1O (some centres undefined)

Row | IC50 [1] [nM] | IC50 [2] [nM] | IC50 [3] [nM] | bioavailability [4] [%] | half-life [5] [min] | Compound
23 | – | 0.9 | – | – | – | O=C(O)C[C@H](NC(=O)CNC(=O)c1cc(O)cc(NC2=NCCCN2)c1)c1cc(Cl)cc(Cl)c1O
24 | – | 2 | – | – | – | O=C(O)C[C@H](NC(=O)CNC(=O)c1cccc(NC2=NCCCN2)c1)c1cc(Cl)cc(Br)c1O
25 | 22800 | 1 | – | – | – | O=C(O)C[C@@H](NC(=O)CNC(=O)c1cncc(NC2=NCC(O)CN2)c1)c1cc(Br)cc(Cl)c1O (some centres undefined)
26 | 25 | 2 | – | – | – | O=C(O)C[C@@H](NC(=O)CNC(=O)c1cccc(NC2=NCC(F)CN2)c1)c1cc(Br)cc(Cl)c1O (some centres undefined)
27 | – | 1 | – | – | – | Cc1cc(C)c(O)c([C@H](CC(=O)O)NC(=O)CNC(=O)c2cc(O)cc(NC3=NCC(O)CN3)c2)c1 (some centres undefined)
28 | 3210 | 4 | – | – | – | O=C(O)C[C@@H](NC(=O)CNC(=O)c1cccc(NC2=NCCCN2)c1)c1cc(Br)cc(Br)c1O
29 | – | 1 | 615 | – | – | O=C(O)C[C@@H](NC(=O)CNC(=O)c1cncc(NC2=NCC(O)CN2)c1)c1cc(Cl)cc(Br)c1O (some centres undefined)
30 | 88 | 8 | – | – | – | O=C(O)C[C@@H](NC(=O)CNC(=O)c1cccc(NC2=NCCCN2)c1)c1cc(Br)cc(Cl)c1O
31 | – | 0.3 | – | – | – | O=C(O)C[C@H](NC(=O)CNC(=O)c1cncc(NC2=NCC(O)CN2)c1)c1cc(Br)cc(Cl)c1O (some centres undefined)
32 | – | 0.7 | 20 | – | – | O=C(O)C[C@@H](NC(=O)CNC(=O)c1cccc(NC2=NCC(O)CN2)c1)c1cc(Cl)cc(Cl)c1O (some centres undefined)
33 | 48 | 8 | – | – | – | O=C(O)C[C@@H](NC(=O)CNC(=O)c1cccc(NC2=NCC(O)CN2)c1)c1cc(Br)cc(Cl)c1O (some centres undefined)
34 | – | 0.2 | – | – | – | O=C(O)C[C@H](NC(=O)CNC(=O)c1cccc(NC2=NCC(F)CN2)c1)c1cc(Cl)cc(Br)c1O (some centres undefined)
35 | 40 | 11 | – | – | – | O=C(O)C[C@@H](NC(=O)CNC(=O)c1cc(O)cc(NC2=NCC(F)CN2)c1)c1cc(Cl)cc(Cl)c1 (some centres undefined)
36 | 10000 | 7 | – | – | – | O=C(O)C[C@@H](NC(=O)CNC(=O)c1cccc(NC2=NCCCN2)c1)c1cc(Cl)cc(I)c1O
37 | – | 1 | 622 | – | – | O=C(O)C[C@@H](NC(=O)CNC(=O)c1cncc(NC2=NCC(O)CN2)c1)c1cc(Cl)cc(I)c1O (some centres undefined)
38 | – | 0.9 | – | – | – | O=C(O)C[C@H](NC(=O)CNC(=O)c1cc(O)cc(N=C2NCC(O)CN2)c1)c1cc(Cl)cc(Cl)c1O (some centres undefined)
39 | 151 | 10 | – | – | – | O=C(O)C[C@@H](NC(=O)CNC(=O)c1cc(O)cc(NC2=NCCCN2)c1)c1cc(Br)cc(Cl)c1O
40 | 216 | 33 | – | – | – | Nc1cc(NC2=NCC(O)CN2)cc(C(=O)NCC(=O)N[C@H](CC(=O)O)c2cc(Br)cc(Cl)c2O)c1 (some centres undefined)
41 | 8620 | 22 | – | – | – | Nc1cc(NC2=NCC(O)CN2)cc(C(=O)NCC(=O)N[C@H](CC(=O)O)c2cc(Cl)cc(Br)c2O)c1 (some centres undefined)
42 | 688 | 18 | – | – | – | Cc1cc(Cl)cc([C@@H](CC(=O)O)NC(=O)CNC(=O)c2cc(O)cc(NC3=NCC(O)CN3)c2)c1O (some centres undefined)
43 | – | 1.6 | – | – | – | O=C(O)C[C@H](NC(=O)CNC(=O)c1cccc(N=C2NCC(O)CN2)c1)c1cc(Cl)cc(I)c1O (some centres undefined)
44 | 1420 | 1 | – | – | – | O=C(O)C[C@@H](NC(=O)CNC(=O)c1cccc(N=C2NCC(F)CN2)c1)c1cc(Cl)cc(Br)c1O (some centres undefined)

Row | IC50 [1] [nM] | IC50 [2] [nM] | IC50 [3] [nM] | bioavailability [4] [%] | half-life [5] [min] | Compound
45 | 3420 | 3 | – | – | – | O=C(O)C[C@@H](NC(=O)CNC(=O)c1cc(O)cc(NC2=NCC(F)CN2)c1)c1cc(Br)cc(Br)c1O (some centres undefined)
46 | 57 | 5 | – | – | – | O=C(O)C[C@@H](NC(=O)CNC(=O)c1cc(O)cc(NC2=NCC(F)CN2)c1)c1cc(Cl)cc(Br)c1 (some centres undefined)
47 | – | 5 | – | – | – | O=C(O)C[C@H](NC(=O)CNC(=O)c1cc(O)cc(N=C2NCC(F)(F)CN2)c1)c1cc(Cl)cc(Br)c1O
48 | 42 | 1 | – | – | – | O=C(O)C[C@@H](NC(=O)CNC(=O)c1cc(O)cc(NC2=NCC(F)CN2)c1)c1cc(Cl)cc(Cl)c1O (some centres undefined)
49 | 2740 | 10 | – | – | – | O=C(O)C[C@@H](NC(=O)CNC(=O)c1cc(O)cc(NC2=NCCCN2)c1)c1cc(Cl)cc(Br)c1O
50 | 204 | 20 | – | – | – | O=C(O)C[C@@H](NC(=O)CNC(=O)c1cc(O)cc(N=C2NCCCN2)c1)c1cc(Br)cc(Br)c1O
51 | – | 3 | 164 | – | – | O=C(O)C[C@@H](NC(=O)CNC(=O)c1cc(O)cc(NC2=NCC(F)CN2)c1)c1cc(Cl)cc(I)c1O (some centres undefined)
52 | 1830 | 0.7 | – | – | – | O=C(O)C[C@@H](NC(=O)CNC(=O)c1cncc(NC2=NCC(F)CN2)c1)c1cc(Cl)cc(Br)c1O (some centres undefined)
53 | 14 | 1 | – | – | – | O=C(O)C[C@@H](NC(=O)CNC(=O)c1cncc(NC2=NCC(F)CN2)c1)c1cc(Cl)cc(Cl)c1O (some centres undefined)
54 | – | 0.4 | – | – | – | O=C(O)C[C@H](NC(=O)CNC(=O)c1cncc(N=C2NCC(O)CN2)c1)c1cc(Cl)cc(Br)c1O (some centres undefined)
55 | 24 | 4 | – | – | – | O=C(O)C[C@@H](NC(=O)CNC(=O)c1cccc(NC2=NCCCN2)c1)c1cc(Cl)cc(Cl)c1O
56 | 25 | 10 | – | – | – | O=C(O)C[C@@H](NC(=O)CNC(=O)c1cccc(NC2=NCC(O)CN2)c1)c1cc(Br)cc(Br)c1O (some centres undefined)
57 | – | 2 | – | – | – | O=C(O)C[C@H](NC(=O)CNC(=O)c1cc(O)cc(NC2=NCCCN2)c1)c1cc(Cl)cc(Br)c1O
58 | 65 | 10 | – | – | – | Cc1cc(C)c(O)c([C@@H](CC(=O)O)NC(=O)CNC(=O)c2cc(N)cc(NC3=NCC(F)CN3)c2)c1 (some centres undefined)
59 | 6540 | 5 | – | – | – | O=C(O)C[C@@H](NC(=O)CNC(=O)c1cccc(NC2=NCCCN2)c1)c1cc(Cl)cc(Br)c1O
60 | 7260 | 5 | – | – | – | O=C(O)C[C@@H](NC(=O)CNC(=O)c1cc(O)cc(NC2=NCC(F)(F)CN2)c1)c1cc(Cl)cc(Br)c1O
61 | 2790 | 7 | – | – | – | Nc1cc(NC2=NCC(O)CN2)cc(C(=O)NCC(=O)N[C@H](CC(=O)O)c2cc(Br)cc(Br)c2O)c1 (some centres undefined)
62 | – | 0.6 | – | 13.6 | 306 | O=C(O)C[C@H](NC(=O)CNC(=O)c1cc(O)cc(N=C2NCC(F)CN2)c1)c1cc(Cl)cc(Br)c1O (some centres undefined)
63 | – | 2.6 | – | – | – | O=C(O)C[C@H](NC(=O)CNC(=O)c1cc(O)cc(NC2=NCC(O)CN2)c1)c1cc(Cl)cc(Br)c1O (some centres undefined)
64 | 11 | 13 | – | – | – | O=C(O)C[C@@H](NC(=O)CNC(=O)c1cc(O)cc(NC2=NCC(F)CN2)c1)c1cc(Br)cc(I)c1 (some centres undefined)
65 | – | 3 | 64 | – | – | O=C(O)C[C@@H](NC(=O)CNC(=O)c1cc(O)cc(NC2=NCC(O)CN2)c1)c1cc(Cl)cc(Cl)c1O (some centres undefined)
